Reference: ChEMBL document CHEMBL3046166, “Synthesis and biological evaluation of some new Thiazolo[3,2-a][1,3,5]triazine derivatives” (2012)
The source made the active and inactive calls. No cut-off for these calls is given here.

Experiments:
[1] = tested on: Escherichia coli; experiment: Antibacterial activity against Escherichia coli after 24 hr by agar diffusion technique; type: functional
[2] = Induction of DNA fragmentation using ethidium bromide staining by agarose gel electrophoresis

Compound | diameter of the inhibition zone (DIZ) [1] | Activity [2]
CN(C)/C=c1\sc2n(c1=O)CN(c1ccccc1)CN=2 | 26 mm | Active
N=C1NC(=O)/C(=C/c2ccccc2)S1 | 15 mm | Active
N=C1NC(=O)CS1 | 14 mm | Active
CSC(=S)C1Sc2nc(=S)sc(=S)n2C1=O (centres undefined) | 14 mm | Active
CC1(C)S[C@@H]2[C@H](NC(=O)[C@H](N)c3ccccc3)C(=O)N2[C@H]1C(=O)O [AMPICILLIN] | 21 mm | –
O=c1/c(=C/c2ccc3c(c2)OCO3)sc2n1CN(c1ccccc1)CN=2 | 14 mm | Active
O=C1CSC2=NCN(c3ccccc3)CN12 | 26 mm | Active
O=c1/c(=C/c2ccc(/C=c3/sc4n(c3=O)CN(c3ccccc3)CN=4)cc2)sc2n1CN(c1ccccc1)CN=2 | 14 mm | Active
O=c1/c(=C/c2ccc(Cl)cc2)sc2n1CN(c1ccccc1)CN=2 | 14 mm | Active
Cc1ccc(N/N=C2/SC3=NCN(c4ccccc4)CN3C2=O)cc1 | 13 mm | Active
